# Laboratory results published in patent publication US12545677B2, “Compounds useful as factor XIa inhibitors” (JANSSEN PHARMACEUTICA NV, priority 2020, dated 2026).
# Read-outs that look alike come from different tables or passages of the source.
# Legend:
# [1] = test system: activated partial thromboplastin time (aPTT); assay: Ex vivo clotting assay (aPTT); type: in vivo, New Zealand White (NZW) rabbits; settings: for ex vivo aPTT Onset of Clotting Time, mean: n 4, in s (unit assumed)
# Excerpt: The following coagulation reagents were purchased from Diagnostica Stago (Parsippany, NJ): Thrombin 10 (Catalog No: 00611, lot No: 251851) for thrombin time (TT), Neoplastine® Cl 5 (Catalog No: 00666, lot No: 01504) for prothrombin time (PT), C.K. Prest® 5 (Catalog No: 00597, lot No: 112768) and CaCl2 (0.025 M, Catalog No: 00367, Lot No: 254158) for activated partial thromboplastin time (aPTT). Coagulometer STA rt4 (Diagnotica Stago) was used for ex vivo clotting time analysis.
# Blood samples (1 mL each) were collected in 3.2% sodium citrate (BD Biosciences, Franklin Lakes, NJ) before and after shunt set up from the femoral artery cannula and centrifuged at 2500 g for 15 minutes at 20° C. The resulting platelet poor plasma (PPP) was transferred into clean tubes and stored at −80° C. until use.
# Coagulation assays were performed with PPP in a 4 channel coagulometer STA rt4 (Diagnotica Stago). For the aPTT assay, 50 μl C.K. Preset reagent was incubated with 50 μl PPP for 3 min at 37° C. in a cuvette, and coagulation was initiated by adding 50 μl 25 mM CaCl2). The onset of clotting was recorded as the coagulation time.
# Statistical analysis: All the data are expressed as mean±SEM. Statistical analyses were performed using GraphPad Prism software (v8.0). Significance was defined at p<0.05 as determined by one-way ANOVA. Tukey's test was used for multiple comparisons.
# [2] = Rat PK study; type: in vivo, Sprague-Dawley rats
# Procedure: Biological Example 5: PK Studies
# Animals: Male Sprague-Dawley rats (7-8 weeks old, body weight 250-300 g) were kept in plastic cages with free access to standard rat diet (Keaoxieli, Beijing, China) and water. The animals were maintained at a temperature of 20-25° C. with a 12-hour light/dark cycle and relative humidity of 40%-70% before the experiment.
# Pharmacokinetics in rats: The cannulation of the jugular vein was pre-treated to the rats 2-3 days prior to the study. Test compound (dissolved in PEG400/water (1:1) or suspended in 0.5% HPMC) was administered orally via oral gavage at a dose of 5 or 10 mg/kg to 3 rats, and test compound (dissolved in 20% HPbCD or PEG400/water (1:1)) was injected to the tail vein at a dose of 1 or 2 mg/kg to 3 rats.
# Blood samples (approximately 0.2 ml, each) were collected from the jugular vein at 0 (as a pre-dose), 5 (only for IV administration), 15, 30, 60, 120, 240, 360, 480 and 1440 mins post dose. A volume of 0.2 ml of heparinized 0.9% NaCl injectable solution (50 U/mL) was used to flush each cannula immediately after obtaining each blood sample, in order to prevent blood clotting and to compensate for fluid loss. Blood samples were separated by centrifugation, and approximately 0.1 ml aliquot of plasma was stored at −80° C. until analysis.
# LC-MS/MS analysis: The analyte was assayed by a liquid chromatography coupled with tandem mass spectrometry (LC-MS/MS) method. The LC-MS/MS system consisted of a Shimadzu HPLC system (Kyoto, Japan) and API 5500 triple-quadrupole mass spectrometer equipped with a turbo electrospray ionization (ESI) source (AB Sciex, Toronto, Canada). LC conditions were as follows: column, Synergi 2.5μ Polar-RP 100A (50*3.0 mm) (Phenomenex, Torrance, CA); gradient elution at 0.5 mL/min with 5% acetonitrile in water containing 0.1% formic acid or 95% acetonitrile in water containing 0.1% formic acid; and injection volume, 10 μL. A multiple reaction monitoring (MRM) method was selected for quantitative analysis. The optimized transitions were Q1→Q3 and M1→M3 for analyte and internal standard, respectively. The instrumental parameters were set as follows: ion spray voltage: 5500 V; curtain gas: 30 psi; nebulizer gas: 50 psi; turbo gas: 50 psi; collision gas: 10 psi; temperature: 450° C.
# Data analysis: Standard methods were used to calculate the pharmacokinetic parameters, such as the total area under the plasma concentration-time curve from time 0 to infinity (AUC0-t) and terminal half-life, using non-compartmental analysis (WinNonlin), the peak plasma concentration (Cmax) and time to reach Cmax (Tmax) were determined directly from the experimental data.
# [3] = 0.15 + 0.13 mg/kg initial + maintenance, 20 min post initial dose
# [4] = 0.15 + 0.13 mg/kg initial + maintenance, 60 min post initial dose
# [5] = 0.5 + 0.43 mg/kg initial + maintenance, 20 min post initial dose
# [6] = 0.5 + 0.43 mg/kg initial + maintenance, 60 min post initial dose
# [7] = 1.5 + 1.3 mg/kg initial + maintenance, 20 min post initial dose
# [8] = 1.5 + 1.3 mg/kg initial + maintenance, 60 min post initial dose
# [9] = 5.0 + 4.3 mg/kg initial + maintenance, 20 min post initial dose
# [10] = 5.0 + 4.3 mg/kg initial + maintenance, 60 min post initial dose
# [11] = 15.0 + 13.0 mg/kg initial + maintenance, 20 min post initial dose
# [12] = 15.0 + 13.0 mg/kg initial + maintenance, 60 min post initial dose
structure (smiles),measurement,setting,value
"O=C1C=C(c2c(-n3cnnn3)ccc(Cl)c2F)C[C@H]2CC[C@@H](c3ncc(-c4ccnc(CO)c4F)[nH]3)N12 [Compound of formula (I-A), (3S,8aR)-7-(3-Chloro-2-fluoro-6-(1H-tetrazol-1-yl)phenyl)-3-(5-(3-fluoro-2-(hydroxymethyl)pyridin-4-yl)-1H-imidazol-2-yl)-2,3,8,8a-tetrahydroindolizin-5(1H)-one]","ex vivo aPTT, Fold vs baseline",[1]; [3],1.37
same,"ex vivo aPTT Onset of Clotting Time, mean",[1]; [3],28.00
same,"ex vivo aPTT, Fold vs baseline",[1]; [4],1.17
same,"ex vivo aPTT Onset of Clotting Time, mean",[1]; [4],23.88
same,"ex vivo aPTT, Fold vs baseline",[1]; [5],1.24
same,"ex vivo aPTT Onset of Clotting Time, mean",[1]; [5],25.40
same,"ex vivo aPTT, Fold vs baseline",[1]; [6],1.02
same,"ex vivo aPTT Onset of Clotting Time, mean",[1]; [6],20.95
same,"ex vivo aPTT, Fold vs baseline",[1]; [7],1.59
same,"ex vivo aPTT Onset of Clotting Time, mean",[1]; [7],32.50
same,"ex vivo aPTT, Fold vs baseline",[1]; [8],1.37
same,"ex vivo aPTT Onset of Clotting Time, mean",[1]; [8],28.05
same,"ex vivo aPTT, Fold vs baseline",[1]; [9],2.32
same,"ex vivo aPTT Onset of Clotting Time, mean",[1]; [9],47.40
same,"ex vivo aPTT, Fold vs baseline",[1]; [10],2.14
same,"ex vivo aPTT Onset of Clotting Time, mean",[1]; [10],43.75
same,"ex vivo aPTT, Fold vs baseline",[1]; [11],3.40
same,"ex vivo aPTT Onset of Clotting Time, mean",[1]; [11],69.6
same,"ex vivo aPTT, Fold vs baseline",[1]; [12],3.27
same,"ex vivo aPTT Onset of Clotting Time, mean",[1]; [12],67.00
same,F,[2]; formulation vehicle: 0.5% HPMC at 10 mg/kg,53.4% (formulation vehicle: 0.5% HPMC at 10 mg/kg)
same,clearance,"[2]; male, Sprague-Dawley, plasma, IV, 20% HPbCD at 2 mg/kg",1.18 L/h/kg
same,half-life,"[2]; male, Sprague-Dawley, plasma, IV, formulation vehicle: 20% HPbCD at 2 mg/kg, read-out: t1/2 (IV) (converted)",3.25 h
same,Cmax,"[2]; male, Sprague-Dawley, plasma, PO, 0.5% HPMC at 10 mg/kg",3.77 µg/mL
same,half-life,"[2]; male, Sprague-Dawley, plasma, PO, 0.5% HPMC at 10 mg/kg, read-out: t1/2 (PO) (converted)",2.66 h
